Reference: US20220409727A1, “Metal Complexes Bearing Bisstyryl-Bipyridine Ligand and Their Use as Photosensitizer Agent in One and Two-Photon Photodynamic Therapy” (Paris Sciences et Lettres, priority 2019, published 2022)
Where two headings read alike, the source gives them in different places.

What was measured:
[1] = Singlet oxygen measurement, direct evaluation (1O2 luminescence at 1270 nm); type: physicochemical
In short: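 Air-saturated CH3CN or D2O solutions (A450 = 0.2) irradiated with 450 nm LED at varied intensities; 1O2 emission at 1270 nm recorded 1100–1400 nm with cooled germanium detector. Quantum yield from slope of integrated peak area versus intensity, absorbance-corrected, relative to Rose Bengal (Φ=76%).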

[2] = Singlet oxygen measurement, indirect evaluation (RNO absorbance); type: physicochemical
In short: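 Complex (absorbance 0.2 in air-saturated CH3CN with RNO 24 μM, imidazole 12 mM; or 0.1 in air-saturated PBS with RNO 20 μM, histidine 10 mM) irradiated for varying times. RNO bleaching (A0−A) at 420 nm (CH3CN) or 440 nm (PBS) plotted against time; slope with absorbance correction gives singlet oxygen quantum yield.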

HeLa MCTS = assay: 3D multicellular tumor spheroids (MCTS) growth inhibition assay; type: cell-based, human; conditions: 20 μM, 1P (500 nm, 10 J/cm^2) or 2P (800 nm, 10 J/cm^2) irradiation on day 3
Method: autoclave. The hot emulsion was transferred into wells (50 μL per well) of a 96 cell culture well plate. The plates were exposed for 3 h to UV irradiation to ensure the sterility and allow the agarose solution to cool down. After this time, the agarose was overlayed with a HeLa cell suspension at a density of 3000 cells per well in 150 μL of media. The MCTS were cultivated and maintained at 37° C. in a cell culture incubator at 37° C. with 5% CO2 atmosphere. The culture media was replaced every two days. Within two-three days MCTs were formed from the cell suspension. The formation as well as integrity, diameter and volume of the MCTs was monitored by an Axio Observer Z1 (Carl Zeiss) phase contrast microscope. The volume was calculated using the following formula: V=4/3πr^3. The luminescence images along the z-axis were captured by a one-(λex=458 nm, λem=600-750 nm) or two-photon (λex=800 nm, λem=600-750 nm) excitation in the z-stack mode with a an LSM 880 (Carl Zeiss) laser scanning confocal microscope equipped with Argon and a Coherent Chameleon 2-Photon laser and a GaAsP detector.
MCTS were treated with the corresponding compounds (20 μM 1-7, 20 μM tetraphenylporphyrin H2TPP, 10 μM cisplatin, 30 μM cisplatin, 2% DMSO, v %) by replacing 50% of the media with drug supplemented media in the dark for three days. After this time, the MCTS were exposed to a two-photon irradiation (800 nm, 10 J/cm^2) with a section interval of 5 μm using a LSM 880 (Carl Zeiss) laser scanning confocal microscope equipped with a Coherent Chameleon 2-Photon laser. The cell culture media was replaced every two days. The integrity and diameter of the MCTs was monitored with an Axio Observer Z1 (Carl Zeiss) phase contrast microscope every 24 h.

[3] = system: SW620/AD300 (doxorubicin-selected P-gp-overexpressing human colon cancer cell) tumour-bearing nude mice; assay: In vivo PDT in tumour-bearing nude mice
Method: 6 weeks age nu/nu female mice were purchased from Charles River. Compound 7 was dissolved into physiological saline at first. Tumor xenograft: 6×10^6 SW620/AD300 cells were subcutaneously (s.c.) injected in the nude mice, the cells were suspension in 150 μL Matrigel (Corning) and saline (1:1, v/v). After a week, the tumor volumes of the mice reached approximately 80 mm^3.
30 SW620/AD300 nude tumour-bearing nude mice were randomly separated into 6 groups and five mice for each group.
Group 1: injected 7 (2 mg/Kg 50 μL) intravenously and irradiate under 800 nm laser (50 mW, 1 kHz, pulse width 35 fs, 5 s/mm) 1 h after injection;
Group 2: injected 7 (2 mg/Kg 50 μL) intravenously and irradiate under 500 nm light (10 mW/cm^2, 60 min);
Group 3: injected by physiological saline (50 μL) and treated with 800 nm laser (50 mW, 1 kHz, pulse width 35 fs, 5 s/mm) 1 h after injection;
Group 4: injected by physiological saline (50 μL) and treated with 500 nm light (10 mW/cm^2, 60 min);
Group 5: intravenous injected 7 (2 mg/Kg 50 μL);
Group 6: injected 50 μL physiological saline.
The mice were anesthetized by the injection of 4% chloral hydrate aqueous solution (0.2 mL/20 g) before treatment. The tumour volume and body weight were measured and record for each two days. Tumor volume was calculated by the following formula
After the treatment, the mice were euthanized. The tumour was collected and fixated by 4% paraformaldehyde, and then obtained as paraffin-embedded samples and stained with hematoxylin and eosin (H&E). A Carl Zeiss Axio Imager Z2 microscope was used to observe the tissue structure and cell state of the sections.

[4] = system: mouse colon carcinoma (CT-26) cells; assay: (Photo-)cytotoxicity on 2D cell monolayers, resazurin assay, CT-26; conditions: for IC50: compounds 1-3 as chloride salts
Method: The human glioblastoma astrocytoma (U373) cell line was cultured in MEM medium supplemented with 10% FBS, 1% NEAA (non-essential amino-acids) and 1% penicillin/streptomycin. […] The human retinal epithelial cells (RPE-1, non-cancerous cells immortalized with hTERT) were cultured in DMEM-F12 medium supplemented with 10% FBS and 1% penicillin/streptomycin. All cell lines were obtained from the American Type Culture Collection (ATCC) and cultured at 37° C. and 5% CO2. Before an experiment, the cells were passaged three times.
The cytotoxicity of the compounds was assessed by measuring cell viability using a fluorometric resazurin assay. The cultivated cells were seeded in triplicates in 96 well plates with a density of 4000 cells per well in 100 μL of media. After 24 h, the medium was removed and the cells were treated with increasing concentrations of the compound diluted in cell media achieving a total volume of 200 μL. The cells were incubated with the compound for 4 h. After this time, the media was removed and replaced with 200 μL of fresh medium. For the phototoxicity studies, the cells were exposed to light with an Atlas Photonics LUMOS BIO irradiator. Each well was constantly illuminated with either a 480 nm or 540 nm irradiation. During this time, the temperature was maintained constantly at 37° C. The cells were grown in the incubator for additional 44 h. For the determination of the dark cytotoxicity, the cells were not irradiated and after the medium exchange directly incubated for 44 h. After this time, the medium was replaced with fresh medium containing resazurin with a final concentration of 0.2 mg/mL. After 4 h incubation, the amount of the fluorescent product resorufin was determined upon excitation at 540 nm and measurement its emission at 590 nm using a SpectraMax M2 Microplate Reader (Molecular Devices).
The obtained data was analyzed with the GraphPad Prism software.

[Ru(bipy)2((E,E′)-4,4′-Bis[p-(N,N-methoxy)styryl]-2,2′-bipyridine)][PF6]2 [Compound 7]
Singlet oxygen quantum yield, direct 450 nm CH3CN [1]: 75% | singlet oxygen quantum yields in CH3CN ([2]; CH3CN, range over direct and indirect methods, 450 and 540 nm): 68-77% | singlet oxygen quantum yields in an aqueous solution ([2]; aqueous solution (PBS), range over 450 and 540 nm): 10-11% | Singlet oxygen quantum yield, indirect 450 nm CH3CN ([2]; indirect, 450 nm, CH3CN): 77% | Singlet oxygen quantum yield, indirect 450 nm PBS ([2]; indirect, 450 nm, PBS): 11% | Singlet oxygen quantum yield, indirect 540 nm CH3CN ([2]; indirect, 540 nm, CH3CN): 68% | Singlet oxygen quantum yield, indirect 540 nm PBS ([2]; indirect, 540 nm, PBS): 10% | volume of the MCTS after light irradiation (HeLa MCTS): strongest phototoxic effect | behaviour of treated animals ([3]; 2 mg/Kg intravenously): behave normally, without signs of pain, stress or discomfort | tumour volume, PDT treated ([3]; 2 mg/Kg intravenously plus 2P irradiation at 800 nm or 1P irradiation at 500 nm, 15 days): drastically shrank until they were nearly eradicated | tumour volume, compound only ([3]; 2 mg/Kg intravenously, no irradiation): did not show any significant effect | PI (480 nm) ([4]; CT-26, dark vs 480 nm (10 min, 3.1 J/cm^2)): >142.9 | PI (540 nm) ([4]; CT-26, dark vs 540 nm (40 min, 9.5 J/cm^2)): >111.1 | IC50 ([4]; read-out: IC50 540 nm (40 min, 9.5 J/cm^2), CT-26, irradiation 540 nm (40 min, 9.5 J/cm^2)): 900 ± 300 nM | IC50 ([4]; read-out: IC50 dark, CT-26, dark, 4 h incubation): > 100000 nM
